Data from patent US7175872B2, “Pyridinium-Betain compounds for use as taste modulators” (Nestec S.A., priority 2002, dated 2007).
Counter-ions that a name gives are not always drawn.

System: umami taste of MSG
Experiment: Umami taste detection threshold of MSG/Pyridinium-Betaine mixtures (triangle test, sensory panel)
Format: in vivo
Conditions: equimolar mixture with MSG; for Threshold decrease: vs MSG in water 1.5 mmol/L
Protocol: • Sensory panel training: […] Sensory analyses were performed in a sensory panel room at 22-25° C. on three different sessions. • Taste thresholds: The taste thresholds of the tastants or mixtures containing basic tastants plus Pyridinium-Betains were determined in a triangle test using Evian® mineral water as the solvent at a defined pH ([…] and H.-D. Belitz, Z. Lebensm. Unters. Forsch. 1975, 159, 65-72). The samples (3 mL) were presented in order of increasing concentrations (serial 1:1 dilutions). The threshold values evaluated in two different sessions were averaged. […] The taste intensities of aqueous (Evian®) solutions containing a basic tastant, such as glucose and MSG, for example, in constant concentrations and the compounds of the general formula (A), for example […], in various concentrations were compared with those of a solution containing the basic tastant only. To achieve this, triangle tests were performed with two glass vials containing the basic tastant in constant concentrations, and one glass vial containing a stepwise 1:1-diluted mixture of basic […]. […] The relative taste strength (taste enhancing factor) of a mixture containing the basic […] was related to the basic tastants glucose, MSG, or other tastants, respectively, as standard substances, and was determined as the ratio of the concentrations c of iso-intensely tasting solutions of the basic tastant, such as glucose (glc), and the mixture containing tastant plus Pyridinium-Betain, […])=[…] […] This taste enhancing effect is illustrated in examples. Pyridinium-Betaines not only enhance the sweet taste perception, but also the umami taste.

`CC(C(=O)[O-])[n+]1cc(O)ccc1CO` (stereo not drawn) [Alapyridaine, N-(1-carboxyethyl)-3-hydroxy-6-hydroxymethyl-pyridinium inner salt] was tested, and the Taste quality (pH 5.0) was “umami”, the Umami detection threshold (pH 5.0) was 0.4 mmol/kg water and the Threshold decrease (pH 5.0) was 4.0. For the same compound, the Taste quality (pH 7.0) was “umami”, the Umami detection threshold (pH 7.0) was 0.4 mmol/kg water and the Threshold decrease (pH 7.0) was 4.0. The Taste quality (pH 9.0) was “umami”, the Umami detection threshold (pH 9.0) was 0.4 mmol/kg water and the Threshold decrease (pH 9.0) was 4.0.
